Assay results: PMC9124820, “In vitro evaluation of fenfluramine and norfenfluramine as victims of drug interactions” (Pharmacology Research & Perspectives, 2022)

Assays:
[1] = 0.1 mg/kg FFA twice daily with stiripentol plus clobazam, with or without valproate, steady state; ref Prescribing information: https://www.fintepla.com/; cited from earlier work
[2] = molecular target: T1, rCYP2D6 (Homo sapiens, UniProt P10635); assay: Reaction phenotyping with rCYP2D6; assay type: in vitro ADME; details: rCYP2D6, 60 min
T1 construct: purchased Cypex, Ltd; host or cells: Escherichia coli
Protocol: For FFA and nFFA reaction phenotyping experiments, LC‐MS/MS experiments were performed using an API 4000 QTRAP or QTRAP 5500 mass spectrometer (SCIEX) with positive electrospray ionization. Chromatography was performed using an Atlantis dC18 analytical column (100 × 2.1 mm, 5 µm; Waters Corporation). Mobile phases were 0.2% v/v formic acid in water and 0.2% v/v formic acid in methanol. FFA and nFFA were eluted at a flow rate of 0.5 mL/min with a linear gradient of 40%−95% methanol from 0.20−2.1 min. The mass transitions monitored were 232.0>109.0 for FFA, 204.0>159.0 for nFFA, 348.0>330.0 for 1’‐hydroxymidazolam‐d4 internal standard (FFA reaction phenotyping), and 262.0>244.0 for hydroxybupropion‐d6 internal standard (nFFA reaction phenotyping). Analyst Instrument Control and Data Processing software (v. 1.6.1) was used for collecting and integrating data (SCIEX). Calibration curves ranging from 1.25 µM−0.01 µM were used to quantify nFFA. Relative quantitation was used to approximate the amount of FFA test material used.
Methods used to evaluate the role of CYP450s in the metabolism of FFA have been described.[22], [23], [24] […] Supernatant fractions were analyzed by LC‐MS/MS.

[3] = Metabolic stability and metabolite identity, dog intestinal S9 fractions; assay type: in vitro ADME
Protocol: (§1) LC‐MS/MS analyses to assess metabolic stability and identify the transporter substrate were performed using an API 4000 QTRAP mass spectrometer (SCIEX, Framingham, MA) with electrospray ionization in positive mode. Chromatography was performed using an Atlantis dC18 analytical column (100 × 2.1 mm, 5 µm; Waters Corporation, Milford, MA). Mobile phases were 0.2% v/v formic acid in water and 0.2% v/v formic acid in acetonitrile. For metabolic stability experiments, FFA and metabolites were eluted at a flow rate of 0.6 mL/min, with a linear gradient of 20%−80% acetonitrile from 0.30−2.0 min. For transporter substrate experiments, the gradient was slightly modified to achieve suitable chromatography. The mass transitions monitored were 232.0 > 159.0 for FFA and 348.0 > 330.0 for 1ʹ‐OH‐midazolam‐d4 internal standard. […]
(§2) FFA (1 or 10 µM) was incubated with liver and intestinal S9 fractions (2 mg protein/mL) at 37 ± 1°C in 0.2‐mL incubation mixtures containing potassium phosphate buffer (50 mM, pH 7.4), magnesium chloride (MgCl2) (3 mM), and EDTA (1 mM, pH 7.4), in the presence or absence of a three‐component cofactor mixture (NADPH‐generating system, uridine diphosphate glucuronic acid (UDPGA) [8 mM], and 3’‐phosphoadenosine 5’‐phosphosulfate [0.5 mM]). […] Supernatant fractions were analyzed by LC‐MS/MS.
To characterize substrate loss and metabolic stability, duplicate samples were analyzed by LC‐MS/MS to determine the change in substrate concentration over the incubation period. The rate constant of elimination (kel, min^−1) was determined from the time course of substrate loss based on single exponential decay (A(t)=A0(‐kelt)) . Half‐life in vitro was determined by the following equation: t1/2 = 0.693/kel. The in vitro intrinsic clearance (CLint) was calculated from the rate constant of elimination as follows: CLintμL/min/mgprotein=kelmin^‐1×incubationvolume(μL)/mgproteinperincubation.
Percent loss of substrate was determined by normalizing the mean analyte peak‐area ratio at each time point to the average of four replicates at the 0‐min time point (100%).

[4] = Metabolic stability and metabolite identity, rat liver S9 fractions; assay type: in vitro ADME; details: pH 7.4; 1 µM FFA, rat liver S9 fractions 2 mg protein/mL
Protocol: as §1, with “For transporter substrate experiments, the gradient was slightly modified to achieve suitable chromatography.” left out
as §2
To characterize substrate loss and metabolic stability, duplicate samples were analyzed by LC‐MS/MS to determine the change in substrate concentration over the incubation period. […]

[5] = intestinal S9 fractions, pH 7.4, 1 µM FFA, dog intestine S9 fractions, outside assay detection limits

T1 sequence (P10635 whole entry): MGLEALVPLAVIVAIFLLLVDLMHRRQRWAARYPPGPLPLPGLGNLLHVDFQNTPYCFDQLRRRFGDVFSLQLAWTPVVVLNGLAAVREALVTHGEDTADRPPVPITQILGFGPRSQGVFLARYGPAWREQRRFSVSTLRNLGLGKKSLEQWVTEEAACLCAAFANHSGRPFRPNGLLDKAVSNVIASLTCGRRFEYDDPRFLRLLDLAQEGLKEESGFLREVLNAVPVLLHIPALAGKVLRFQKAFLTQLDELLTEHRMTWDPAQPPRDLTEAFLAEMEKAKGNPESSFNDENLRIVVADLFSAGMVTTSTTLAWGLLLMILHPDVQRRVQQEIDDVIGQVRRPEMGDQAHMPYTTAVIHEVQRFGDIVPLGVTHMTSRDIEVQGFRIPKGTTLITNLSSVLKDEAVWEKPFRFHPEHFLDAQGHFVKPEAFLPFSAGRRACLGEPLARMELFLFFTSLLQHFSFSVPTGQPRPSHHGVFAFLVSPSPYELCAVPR

## CCNC(C)Cc1cccc(C(F)(F)F)c1 (racemic) [FFA, (RS)‐ethyl (α‐methyl‐3‐trifluoromethylphenethyl)amine]
[1]
  increase in FFA AUC0‐24: 166%
[2]; 1 μM FFA
  Disappearance of FFA: 97%
[2]; 10 μM FFA
  FFA loss: 59%
[3]; dog intestinal S9 fractions, higher at 10 µM than at 1 µM
  percentage of FFA substrate loss at 10 µM relative to 1 µM: about 2 fold
[3]; [5]
  half-life at 1 µM: > 120 min
  microsomal CLint at 1 µM: < 2.9 µL/min/mg
[4]
  half-life at 1 µM: 35.4 min
  microsomal CLint at 1 µM: 9.8 µL/min/mg
